Values joined by “and” are separate entries in the source; they are usually repeats but may differ in a detail not shown here. Equal entries are not always repeated. Inconclusive results and toxic doses are left out.
System: L1210 leukemia ip in BDF1 mice, survival T/C
Assay: NCI In Vivo Anticancer Drug Screen. Data for tumor model L1210 Leukemia (intraperitoneal) in B6D2F1 (BDF1) mice
Settings: endpoint: mean survival time, higher = longer survival
Outline: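 Read-out is survival time, reported as the treated-group measurement over the vehicle-control measurement.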

[1] = dose: 100.0 mg/kg/injection, schedule: Q04DX003 (ip), vehicle: saline with Tween-80
[2] = dose: 200.0 mg/kg/injection, schedule: Q04DX003 (ip), vehicle: saline with Tween-80
[3] = dose: 400.0 mg/kg/injection, schedule: Q04DX003 (ip), vehicle: saline with Tween-80
[4] = dose: 100.0 mg/kg/injection, schedule: Q01DX001 (ip), vehicle: Klucel (hydroxypropylcellulose) (HPC)
[5] = dose: 200.0 mg/kg/injection, schedule: Q01DX001 (ip), vehicle: Klucel (hydroxypropylcellulose) (HPC)
[6] = dose: 100.0 mg/kg/injection, schedule: Q01DX001 (ip), vehicle: carboxymethylcellulose (CMC)
[7] = dose: 200.0 mg/kg/injection, schedule: Q01DX001 (ip), vehicle: carboxymethylcellulose (CMC)
[8] = dose: 400.0 mg/kg/injection, schedule: Q01DX001 (ip), vehicle: carboxymethylcellulose (CMC)
[9] = dose: 400.0 mg/kg/injection, schedule: Q01DX001 (ip), vehicle: Klucel (hydroxypropylcellulose) (HPC)
[10] = dose: 100.0 mg/kg/injection, schedule: Q01DX009 (ip), vehicle: Klucel (hydroxypropylcellulose) (HPC)
[11] = dose: 100.0 mg/kg/injection, schedule: Q04DX003 (ip), vehicle: Klucel (hydroxypropylcellulose) (HPC)
[12] = dose: 200.0 mg/kg/injection, schedule: Q01DX009 (ip), vehicle: Klucel (hydroxypropylcellulose) (HPC)
[13] = dose: 200.0 mg/kg/injection, schedule: Q04DX003 (ip), vehicle: Klucel (hydroxypropylcellulose) (HPC)
[14] = dose: 400.0 mg/kg/injection, schedule: Q01DX009 (ip), vehicle: Klucel (hydroxypropylcellulose) (HPC)
[15] = dose: 400.0 mg/kg/injection, schedule: Q04DX003 (ip), vehicle: Klucel (hydroxypropylcellulose) (HPC)
[16] = dose: 50.0 mg/kg/injection, schedule: Q01DX009 (ip), vehicle: saline
[17] = dose: 100.0 mg/kg/injection, schedule: Q04DX003 (ip), vehicle: saline
[18] = dose: 100.0 mg/kg/injection, schedule: Q01DX009 (ip), vehicle: saline with Tween-80
[19] = dose: 200.0 mg/kg/injection, schedule: Q01DX009 (ip), vehicle: saline with Tween-80
[20] = dose: 400.0 mg/kg/injection, schedule: Q01DX009 (ip), vehicle: saline with Tween-80
[21] = dose: 100.0 mg/kg/injection, schedule: Q01DX001 (ip), vehicle: saline
[22] = dose: 200.0 mg/kg/injection, schedule: Q04DX003 (ip), vehicle: saline

Compound: CCOC(=O)[C@H]1CCC[C@@H](NC(=O)N(CCCl)N=O)C1
- T/C (dose: 5.0 mg/kg/injection, schedule: Q01DX001 (ip), vehicle: other): 108 % of control
- T/C (dose: 10.0 mg/kg/injection, schedule: Q01DX001 (ip), vehicle: other): 123 % of control
- T/C (dose: 20.0 mg/kg/injection, schedule: Q01DX001 (ip), vehicle: other): 194 % of control
- T/C (dose: 31.0 mg/kg/injection, schedule: Q01DX001 (ip), vehicle: other): 329 % of control
- T/C (dose: 40.0 mg/kg/injection, schedule: Q01DX001 (ip), vehicle: other): 305 % of control
- T/C (dose: 62.0 mg/kg/injection, schedule: Q01DX001 (ip), vehicle: other): 254 % of control

Compound: O=C(OC12CCCC1CC2)c1ccc([N+](=O)[O-])cc1 (stereo not drawn)
- T/C [1]: 91 % of control
- T/C [2]: 103 % of control
- T/C [3]: 100 % of control

Compound: COc1ccc(-n2c(=O)c(N=Nc3ccc(Br)cc3)c(O)n(-c3ccccc3OC)c2=S)cc1
- T/C (dose: 50.0 mg/kg/injection, schedule: Q01DX001 (ip), vehicle: Klucel (hydroxypropylcellulose) (HPC)): 106 % of control
- T/C [4]: 103 % of control
- T/C [5]: 103 % of control

Compound: Cc1ccc(N=C2N(c3ccccc3)N(c3ccccc3)C2(c2ccccc2)c2ccccc2)cc1
- T/C [6]: 92 % of control
- T/C [7]: 88 % of control
- T/C [8]: 88 % of control

Compound: FC(F)(CI)C(F)(F)C(F)(F)CI
- T/C (dose: 100.0 mg/kg/injection, schedule: Q01DX001 (ip), vehicle: acetone): 88 % of control
- T/C (dose: 200.0 mg/kg/injection, schedule: Q01DX001 (ip), vehicle: acetone): 88 % of control
- T/C (dose: 400.0 mg/kg/injection, schedule: Q01DX001 (ip), vehicle: acetone): 88 % of control

Compound: Cc1ccc2[nH]c3cc4ccncc4cc3c2c1
- T/C [4]: 89 % of control
- T/C [5]: 94 % of control
- T/C [9]: 93 % of control

Compound: NC(=O)c1cc(Cl)cc(Cl)c1Br
- T/C (dose: 100.0 mg/kg/injection, schedule: Q04DX003 (ip), vehicle: other): 95 % of control
- T/C (dose: 200.0 mg/kg/injection, schedule: Q04DX003 (ip), vehicle: other): 103 % of control

Compound: COC(=O)c1ccccc1NC(=S)NC(=O)/C=C/c1ccccc1
- T/C [10]: 94 % of control
- T/C [11]: 97 % of control
- T/C [12]: 103 % of control
- T/C [13]: 95 % of control
- T/C [14]: 106 % of control
- T/C [15]: 91 % of control

Compound: CCN(CC)CCOc1c(C(C)C)cccc1C(C)C
- T/C (dose: 12.5 mg/kg/injection, schedule: Q01DX009 (ip), vehicle: saline): 101 % of control
- T/C (dose: 25.0 mg/kg/injection, schedule: Q01DX009 (ip), vehicle: saline): 108 % of control
- T/C [16]: 108 % of control and 89 % of control
- T/C [17]: 117 % of control

Compound: N#CC1=C(N)CCP(c2ccccc2)C1 (stereo not drawn)
- T/C [1]: 94 % of control
- T/C [2]: 97 % of control
- T/C [3]: 100 % of control

Compound: O=C1C2CCCC3CCCC(C(=O)N1O)C32 (stereo not drawn)
- T/C (dose: 100.0 mg/kg/injection, schedule: Q04DX002 (ip), vehicle: saline with Tween-80): 104 % of control
- T/C (dose: 200.0 mg/kg/injection, schedule: Q04DX002 (ip), vehicle: saline with Tween-80): 99 % of control
- T/C (dose: 400.0 mg/kg/injection, schedule: Q04DX002 (ip), vehicle: saline with Tween-80): 86 % of control

Compound: CCCCCCCCCCCCOc1ccc(C2(c3ccc(CCCCCCCCCCCC)cc3)CCCCC2)cc1
- T/C [4]: 101 % of control
- T/C [5]: 101 % of control
- T/C [9]: 106 % of control

Compound: CCCCCCCCCCC[CH2][Hg][CH2]CCCCCCCCCCC
- T/C [11]: 96 % of control
- T/C [13]: 89 % of control
- T/C [15]: 87 % of control

Compound: COc1ccc(C(=O)N/N=C/c2ccccc2OC)cc1
- T/C [10]: 92 % of control
- T/C [12]: 100 % of control
- T/C [14]: 96 % of control

Compound: CN(CCN1CCCCC1)C(=O)C(O)(c1ccccc1)C1CCCCC1 (stereo not drawn)
- T/C (dose: 75.0 mg/kg/injection, schedule: Q01DX001 (ip), vehicle: saline): 96 % of control
- T/C (dose: 150.0 mg/kg/injection, schedule: Q01DX001 (ip), vehicle: saline): 97 % of control

Compound: CCOC(=O)C1(C(=O)OCC)NC(=O)CC1c1ccccc1 (stereo not drawn)
- T/C [10]: 94 % of control
- T/C [11]: 92 % of control
- T/C [12]: 101 % of control
- T/C [13]: 100 % of control
- T/C [14]: 92 % of control
- T/C [15]: 105 % of control

Compound: COc1cc(/C=N/NC(=O)c2ccccc2)cc(OC)c1OC
- T/C [18]: 97 % of control
- T/C [1]: 90 % of control
- T/C [19]: 92 % of control
- T/C [2]: 91 % of control
- T/C [20]: 97 % of control
- T/C [3]: 90 % of control

Compound: N#Cc1[nH]cnc1[N+]#N
- T/C (dose: 3.0 mg/kg/injection, schedule: Q01DX009 (ip), vehicle: saline with Tween-80): 103 % of control
- T/C (dose: 3.0 mg/kg/injection, schedule: Q04DX003 (ip), vehicle: other): 108 % of control
- T/C (dose: 6.0 mg/kg/injection, schedule: Q01DX009 (ip), vehicle: saline with Tween-80): 105 % of control
- T/C (dose: 6.0 mg/kg/injection, schedule: Q04DX003 (ip), vehicle: other): 103 % of control
- T/C (dose: 12.0 mg/kg/injection, schedule: Q01DX009 (ip), vehicle: saline with Tween-80): 91 % of control
- T/C (dose: 12.0 mg/kg/injection, schedule: Q04DX003 (ip), vehicle: other): 108 % of control
- T/C (dose: 12.5 mg/kg/injection, schedule: Q01DX001 (ip), vehicle: other): 94 % of control

Compound: CCN(CC)CCN1C(=O)CN=C(c2ccc[nH]2)c2cc(Cl)ccc21
- T/C [18]: 121 % of control
- T/C [1]: 100 % of control
- T/C [19]: 106 % of control
- T/C [2]: 94 % of control
- T/C [20]: 117 % of control
- T/C [3]: 96 % of control

Compound: CCOC(=O)C(Nc1ccc(SC)cc1)c1ccccc1 (stereo not drawn)
- T/C [21]: 110 % of control
- T/C (dose: 200.0 mg/kg/injection, schedule: Q01DX001 (ip), vehicle: saline): 98 % of control
- T/C (dose: 400.0 mg/kg/injection, schedule: Q01DX001 (ip), vehicle: saline): 98 % of control

Compound: CC(=O)Nc1ccc(Oc2ccccc2)cc1
- T/C (dose: 50.0 mg/kg/injection, schedule: Q01DX009 (ip), vehicle: Klucel (hydroxypropylcellulose) (HPC)): 102 % of control
- T/C [10]: 101 % of control
- T/C [11]: 95 % of control and 101 % of control
- T/C [12]: 106 % of control
- T/C [13]: 97 % of control and 100 % of control
- T/C [15]: 102 % of control

Compound: CC(=O)OCCNc1ccc([N+](=O)[O-])cc1[N+](=O)[O-]
- T/C (dose: 100.0 mg/kg/injection, schedule: Q01DX009 (ip), vehicle: acetone): 109 % of control
- T/C [17]: 101 % of control
- T/C (dose: 200.0 mg/kg/injection, schedule: Q01DX009 (ip), vehicle: acetone): 97 % of control
- T/C [22]: 103 % of control
- T/C (dose: 400.0 mg/kg/injection, schedule: Q01DX009 (ip), vehicle: acetone): 112 % of control
- T/C (dose: 400.0 mg/kg/injection, schedule: Q04DX003 (ip), vehicle: saline): 95 % of control

Compound: CCOC(=O)C(C(=O)OCC)C(CC(=O)C1CC1)c1ccccc1 (stereo not drawn)
- T/C (dose: 50.0 mg/kg/injection, schedule: Q01DX001 (ip), vehicle: carboxymethylcellulose (CMC)): 92 % of control
- T/C [6]: 95 % of control
- T/C (dose: 100.0 mg/kg/injection, schedule: Q04DX002 (ip), vehicle: Klucel (hydroxypropylcellulose) (HPC)): 97 % of control
- T/C [7]: 92 % of control
- T/C (dose: 200.0 mg/kg/injection, schedule: Q04DX002 (ip), vehicle: Klucel (hydroxypropylcellulose) (HPC)): 101 % of control
- T/C [8]: 95 % of control
- T/C (dose: 400.0 mg/kg/injection, schedule: Q04DX002 (ip), vehicle: Klucel (hydroxypropylcellulose) (HPC)): 111 % of control

Compound: CCN(CC)CCn1c(=O)c2ccccc2c2ccccc21
- T/C (dose: 50.0 mg/kg/injection, schedule: Q01DX001 (ip), vehicle: saline): 108 % of control
- T/C [16]: 106 % of control
- T/C (dose: 50.0 mg/kg/injection, schedule: Q04DX003 (ip), vehicle: saline): 103 % of control
- T/C [21]: 104 % of control
- T/C [17]: 111 % of control
- T/C [22]: 107 % of control

Source: PubChem BioAssay AID248 (DTP/NCI, 2004)
